In the NIST ThermoML archive (doi:10.1021/je300603d):

Key:
[1] = 101 kPa, Liquid; for electrical conductivity: Alternating current cell with electrodes; for viscosity: Falling or rolling sphere viscometry; for mass density: Vibrating tube method
[2] = mn = molality of the nth substance listed, in mol/kg; settings: 101 kPa, Liquid, m2 = 0; for electrical conductivity: Alternating current cell with electrodes; for viscosity: Falling or rolling sphere viscometry; for mass density: Vibrating tube method

CCCCn1cc[n+](C)c1.F[B-](F)(F)F [1-butyl-3-methylimidazolium tetrafluoroborate]
[1]
Settings	electrical conductivity [S/m]	mass density [kg/m3]	viscosity [mPa·s]
238.15 K	0.00095	–	–
258.15 K	0.0227	–	–
278.15 K	0.113	1216.3	384.5
288.15 K	–	1209	197.7
298.15 K	0.353	1201.8	112.3
308.15 K	–	1194.6	68.89
318.15 K	0.826	1187.6	45.36
328.15 K	–	1180.6	31.49
338.15 K	1.548	1173.6	21.99
348.15 K	–	1166.7	16.54
358.15 K	2.53	1159.9	12.84
378.15 K	3.74	–	–
398.15 K	5.13	–	–
418.15 K	6.68	–	–
438.15 K	8.36	–	–
458.15 K	10.13	–	–

CCCCn1cc[n+](C)c1.F[B-](F)(F)F [1-butyl-3-methylimidazolium tetrafluoroborate] + F[B-](F)(F)F.[Na+]
[2]
Settings	electrical conductivity [S/m]	mass density [kg/m3]	viscosity [mPa·s]
238.15 K	0.00095	–	–
258.15 K	0.0227	–	–
278.15 K	0.113	1216.3	384.5
288.15 K	–	1209	197.7
298.15 K	0.353	1201.8	112.3
308.15 K	–	1194.6	68.89
318.15 K	0.826	1187.6	45.36
328.15 K	–	1180.6	31.49
338.15 K	1.548	1173.6	21.99
348.15 K	–	1166.7	16.54
358.15 K	2.53	1159.9	12.84
378.15 K	3.74	–	–
398.15 K	5.13	–	–
418.15 K	6.68	–	–
438.15 K	8.36	–	–
458.15 K	10.13	–	–
